Experimental data reported in US4518586A, “GRF Analogs III” (The Salk Institute for Biological Studies, priority 1983, dated 1985).
Square brackets hold non-standard residues; d marks the D form. Peptide text beside a SMILES is read from it. Nle = CCCC[C@H](N)C(=O)O

How the values were obtained:
[1] = tested on: cells of rat pituitary glands; experiment: in vitro assay of growth hormone release from cultured rat pituitary cells, side-by-side with hpGRF(1-40)-OH standard; assay type: cell-based; conditions: for Comparison %: GH release at equimolar concentrations relative to synthetic hpGRF(1-40)-OH standard (100%), incubation 3 to 4 hours, ir GH by radioimmunoassay
Experimental: To determine the effectiveness of the various synthetic peptides to promote the release of growth hormone, in vitro assays are carried out using synthetic hpGRF(1-40)-OH as a standard in side-by-side comparison with equimolar concentrations of the various other analogs and fragments synthesized. Cultures are used which include cells of rat pituitary glands removed some three to five days previously. Cultures which are considered optimal for the secretion of growth hormone are used for the comparative testing, in the general manner described in Vale et al. Endocrinology, 91, 562-572 (1972) and as more particularly described in Vale et al. Endocrinology, (1983), in press. Incubation with the substance to be tested is carried out for 3 to 4 hours, and aliquots of the culture medium are removed and processed to measure their contents in immunoreactive GH(ir GH) by a well-characterized radioimmunoassay.

[2] = tested on: freely running normal male rats; experiment: in vivo GH secretion after injection through indwelling catheter in FLA-63-pretreated rats; set-up: species or system rat; conditions: male rats pretreated with FLA-63
Experimental: In addition to the in vitro tests for secretion of growth hormone, in vivo experiments inject the synthetic peptides through an indwelling catheter into freely running normal male rats after pretreating them with FLA-63, a dopamine hydroxylase inhibitor that suppresses spontaneous GH secretion without affecting the response to exogenous GRF. Blood samples are taken through the same catheter immediately prior to and 5 and 20 minutes after injections. […] Dosages between about 100 nanograms and about 50 micrograms of these peptides per Kg. of body weight are considered to be effective in causing GH secretion.

Compound | Comparison % [1] | duration compared with rGRF(1-29)-NH2 ([2]; GH levels in blood) | stimulation of the secretion of pituitary GH (GH levels in blood) ([2]; blood samples prior to and 5 and 20 minutes after injection, radioimmunoassay) | maximum effective concentration ([1]; in vitro GH secretion)
CCCC[C@H](NC(=O)[C@@H](NC(=O)[C@@H](CCC(=O)O)NC(=O)[C@H](Cc1c[nH]cn1)NC(=O)[C@H](CC(C)C)NC(=O)[C@H](CC(C)C)NC(=O)[C@H](CCCCN)NC(=O)[C@H](CCCNC(=N)N)NC(=O)[C@H](C)NC(=O)[C@H](Cc1ccc(O)cc1)NC(=O)[C@H](CC(C)C)NC(=O)[C@H](CCC(N)=O)NC(=O)CNC(=O)[C@H](CC(C)C)NC(=O)[C@@H](NC(=O)[C@H](CCCNC(=N)N)NC(=O)[C@H](CCCNC(=N)N)NC(=O)[C@H](Cc1ccc(O)cc1)NC(=O)[C@H](CO)NC(=O)[C@H](CO)NC(=O)[C@@H](NC(=O)[C@H](Cc1ccccc1)NC(=O)[C@@H](NC(=O)[C@H](C)NC(=O)[C@H](CC(=O)O)NC(=O)[C@H](C)NC(=O)[C@@H](N)Cc1c[nH]cn1)[C@@H](C)CC)[C@@H](C)O)[C@@H](C)CC)[C@@H](C)CC)C(=O)N[C@@H](CC(N)=O)C(=O)N[C@@H](CCCNC(=N)N)C(N)=O [[D-Glu^25, Nle^27]-rGRF(1-29)-NH2, H-His-Ala-Asp-Ala-Ile-Phe-Thr-Ser-Ser-Tyr-Arg-Arg-Ile-Leu-Gly-Gln-Leu-Tyr- Ala-Arg-Lys-Leu-Leu-His-D-Glu-Ile-Nle-Asn-Arg-NH2] (H-HADAIFTSSYRRILGQLYARKLLH[dE]I[Nle]NR-NH2) | 125% |  |  | 
CCCC[C@H](NC(=O)[C@@H](NC(=O)[C@H](CCC(=O)O)NC(=O)[C@H](Cc1c[nH]cn1)NC(=O)[C@@H](CC(C)C)NC(=O)[C@H](CC(C)C)NC(=O)[C@H](CCCCN)NC(=O)[C@H](CCCNC(=N)N)NC(=O)[C@H](C)NC(=O)[C@H](Cc1ccc(O)cc1)NC(=O)[C@H](CC(C)C)NC(=O)[C@H](CCC(N)=O)NC(=O)CNC(=O)[C@H](CC(C)C)NC(=O)[C@@H](NC(=O)[C@H](CCCNC(=N)N)NC(=O)[C@H](CCCNC(=N)N)NC(=O)[C@H](Cc1ccc(O)cc1)NC(=O)[C@H](CO)NC(=O)[C@H](CO)NC(=O)[C@@H](NC(=O)[C@H](Cc1ccccc1)NC(=O)[C@@H](NC(=O)[C@H](C)NC(=O)[C@H](CC(=O)O)NC(=O)[C@H](C)NC(=O)[C@@H](N)Cc1c[nH]cn1)[C@@H](C)CC)[C@@H](C)O)[C@@H](C)CC)[C@@H](C)CC)C(=O)N[C@@H](CC(N)=O)C(=O)N[C@@H](CCCNC(=N)N)C(N)=O [[D-Leu^23, Nle^27]-rGRF(1-29)-NH2, H-His-Ala-Asp-Ala-Ile-Phe-Thr-Ser-Ser-Tyr-Arg-Arg-Ile-Leu-Gly-Gln-Leu-Tyr- Ala-Arg-Lys-Leu-D-Leu-His-Glu-Ile-Nle-Asn-Arg-NH2] (H-HADAIFTSSYRRILGQLYARKL[dL]HEI[Nle]NR-NH2) | 160% | substantially longer duration | powerful stimulators of the secretion of pituitary GH | 
[D-Leu^23, Nle^27 ]-hpGRF(1-29)-NH2 |  |  |  | about 1 nanomolar
